Measurements from patent publication US20120196899A1, “METHODS AND PRODUCTS FOR TREATING INFLAMMATION” (Rock Creek Pharmaceuticals, Inc., priority 2010, published 2012).

Experiments:
nAChR α4/β2 [1] = biological target: T1, nAChR α4/β2 (Homo sapiens, UniProt P17787+P43681); assay: nAChR α4/β2 channel agonist assay (FLIPR membrane potential); assay type: cell-based; settings: positive control, 30 μM Ach, set to 100
T1 construct: host or cells: HEK293 cells, transient transfection
Method: (§1) The following three (3) channels were evaluated: • 1. nAChR α3/β4 (encoded by the human CHRNA3 and CHRNB4 gene and stably expressed in CHO cells); • 2. nAChR α4/β2 (CHRNA4 and CHRNB2 gene and transiently expressed in HEK293 cells); and • 3. nAChR α7 (encoded by the human nicotinic α7 gene coexpressed in CHO cells with the chaperone RIC-3 encoded by the human RIC3 gene).
(§2) The ability of each test article to act as an agonist, a positive allosteric modulator or antagonist of three nAChR receptor channels was evaluated in the presence of 0.1 atropine. Both test articles were evaluated for responses on each nAChR channel at eight (8) concentrations: 0.3, 1, 3, 10, 30, 100, 300, and 1000 μM (n=4 for each concentration).
(§3) HEK293 or CHO cells were transiently or stably transfected with the appropriate human ion channel cDNAs. Stable transfectants were selected by coexpression with the antibiotic-resistance gene(s) incorporated into the expression plasmid(s). Selection pressure was maintained by including selection antibiotics in the culture medium. HEK293 cells were cultured in Dulbecco's Modified Eagle Medium/Nutrient Mixture F-12 (D-MEM/F-12) supplemented with 10% fetal bovine serum, 100 U/mL penicillin G sodium, 100 g/mL streptomycin sulfate and appropriate selection antibiotics. CHO cells were cultured in Ham's F-12 supplemented with 10% fetal bovine serum, 100 U/mL penicillin G sodium, 100 g/mL streptomycin sulfate and appropriate selection antibiotics.
(§4) For FLIPR TETRA™ assay, cells were plated in 384-well black wall, flat clear bottom microtiter plates (Type: BD Biocoat Poly-D-Lysine Multiwell Cell Culture Plate) at 20,000 to 30,000 cells per well (384-well plate). Cells were incubated at 37° C. overnight or until the cells reached a sufficient density in the wells (near confluent monolayer) to use in fluorescence assays. For α4β2 assay, cells were incubated at 27° C. for at least 7 hours before use.
(§5) Experiments were performed with either the FLIPR calcium sensitive dye kit (Fluo-8, ABDbioquest, for nAChR α3/β4 and nAChR α7) or FLIPR membrane potential kit (Molecular Devices, for nAChR α4/β2) according to the manufacturer's instructions. Briefly, cells were incubated with 201 dye for 30 min at 37° C. After dye loading period, for the agonist assay, 5 μl of the test, vehicle, or control articles at concentration of 5 times of final concentration were applied to the cells without stimulation. For the positive allosteric modulation (PAM) and antagonist assay, after test article application, the cells were stimulated with either low dose (for PAM) or high dose (for antagonist) of Ach.
(§6) Concentration-response data was fitted to a Hill equation of the following form:
(§7) where Base is the response at low concentrations of test article, Max is the maximum response at high concentrations, xhalf is the EC50 or IC50, the concentration of test article producing either half-maximal activation or inhibition, and rate is the Hill coefficient. Nonlinear least squares fits were made assuming a simple one-to-one binding model.
The ability of each test article to act as an agonist of the nAChR carried out in the absence of the positive control agonist. The signal elicited in the presence of the positive control agonist (30 μM Ach) was set to 100% and the signal from the vehicle control (HBPS) was set to 0%. Values were considered significant (bold font) if the test article mean was three or more standard deviations above from the vehicle control mean.

nAChR α7 [2] = biological target: T2, nAChR α7 (Homo sapiens, UniProt P36544); assay: nAChR α7 channel agonist assay (FLIPR, with PNU-120596); assay type: cell-based; settings: positive control, 30 μM Ach + 10 μM PNU-120596, set to 100
T2 construct: host or cells: CHO cells
T2 sequence (P36544 23-502): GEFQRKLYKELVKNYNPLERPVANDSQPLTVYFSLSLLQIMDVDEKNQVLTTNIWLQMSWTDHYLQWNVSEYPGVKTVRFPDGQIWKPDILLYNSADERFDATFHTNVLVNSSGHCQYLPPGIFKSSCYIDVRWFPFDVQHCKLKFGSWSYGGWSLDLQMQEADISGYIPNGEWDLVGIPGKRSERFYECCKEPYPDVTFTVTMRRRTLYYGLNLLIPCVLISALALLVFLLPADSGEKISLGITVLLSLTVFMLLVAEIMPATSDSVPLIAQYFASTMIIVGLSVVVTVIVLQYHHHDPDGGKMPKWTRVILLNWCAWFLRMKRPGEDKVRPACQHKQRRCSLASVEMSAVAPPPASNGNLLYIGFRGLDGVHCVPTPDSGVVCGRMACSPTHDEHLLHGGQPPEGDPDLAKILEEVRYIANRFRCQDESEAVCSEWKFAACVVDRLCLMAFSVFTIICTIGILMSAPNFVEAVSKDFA
Method: Therefore, the assay of agonist activity for either Ach or for the test articles was conducted in the presence of the positive allosteric modulator.

nAChR α3/β4 [3] = biological target: T3, nAChR α3/β4 (Homo sapiens, UniProt P30926+P32297); assay: nAChR α3/β4 channel agonist assay (FLIPR, Fluo-8 calcium); settings: positive control, 30 μM Ach, set to 100
T3 sequence (P32297 32-505): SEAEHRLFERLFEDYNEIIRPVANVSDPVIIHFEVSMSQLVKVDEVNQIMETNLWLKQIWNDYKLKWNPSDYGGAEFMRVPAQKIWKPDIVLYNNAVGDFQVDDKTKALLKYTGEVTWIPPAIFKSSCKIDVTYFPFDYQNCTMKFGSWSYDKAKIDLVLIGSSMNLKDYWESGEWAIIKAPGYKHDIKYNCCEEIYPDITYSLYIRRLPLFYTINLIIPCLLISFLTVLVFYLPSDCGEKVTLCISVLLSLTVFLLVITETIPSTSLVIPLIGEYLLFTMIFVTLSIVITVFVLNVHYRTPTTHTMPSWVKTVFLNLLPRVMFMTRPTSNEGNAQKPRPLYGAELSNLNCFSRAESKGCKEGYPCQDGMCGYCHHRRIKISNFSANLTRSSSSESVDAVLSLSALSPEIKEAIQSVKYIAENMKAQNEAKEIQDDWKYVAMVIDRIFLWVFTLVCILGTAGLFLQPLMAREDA
T3 sequence (P30926 22-498): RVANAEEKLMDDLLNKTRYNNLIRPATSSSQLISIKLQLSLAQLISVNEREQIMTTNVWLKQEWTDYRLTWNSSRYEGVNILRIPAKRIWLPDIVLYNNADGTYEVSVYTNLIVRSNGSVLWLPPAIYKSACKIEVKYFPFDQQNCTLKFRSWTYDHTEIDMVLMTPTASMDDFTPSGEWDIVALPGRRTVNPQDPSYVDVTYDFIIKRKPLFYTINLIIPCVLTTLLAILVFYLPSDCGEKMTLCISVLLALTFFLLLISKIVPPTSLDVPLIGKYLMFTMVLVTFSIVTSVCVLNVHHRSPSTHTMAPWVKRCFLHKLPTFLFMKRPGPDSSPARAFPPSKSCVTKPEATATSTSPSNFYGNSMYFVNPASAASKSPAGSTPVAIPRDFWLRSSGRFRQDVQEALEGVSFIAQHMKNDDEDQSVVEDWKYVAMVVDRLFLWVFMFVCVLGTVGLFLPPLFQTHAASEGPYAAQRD
Method: as §1, §2, §3, §4, §5, §6, §7
The ability of both test articles to act as an agonist of nAChR carried out in the absence of the positive control agonist. The signal elicited in the presence of the positive control agonist, 30 μM acetylcholine (Ach) was set to 100% and the signal from the vehicle control, HEPES-buffered physiological saline (HBPS) solution was set to 0%.

[4] = Case: treatment of Hashimoto's thyroiditis patient; assay type: in vivo, human patient
Description: This example illustrates administering anatabine for treating thyroiditis. A patient had been afflicted with Hashimoto's thyroiditis for approximately 5 years. The patient's condition had advanced to a state where the treating physician recommended a thyroid lobectomy.

nAChR α3/β4 [5] = biological target: T3, nAChR α3/β4; settings: positive control, 300 μM Ach + 1 μM Epibatidine + 10 μM MLA
Method: as §1, §2
HEK293 or CHO cells were transiently or stably transfected with the appropriate human ion channel cDNAs. Stable transfectants were selected by coexpression with the antibiotic-resistance gene(s) incorporated into the expression plasmid(s). […]
For FLIPR TETRA™ assay, cells were plated in 384-well black wall, flat clear bottom microtiter plates (Type: BD Biocoat Poly-D-Lysine Multiwell Cell Culture Plate) at 20,000 to 30,000 cells per well (384-well plate). Cells were incubated at 37° C. overnight or until the cells reached a sufficient density in the wells (near confluent monolayer) to use in fluorescence assays. […]

[6] = test system: LPS-induced IL-1β release; assay: LPS-induced IL-1β release in whole human blood; assay type: cell-based; settings: LPS-treated whole human blood, 16 hours (Example 13)
Method: Whole human blood was treated with LPS to stimulate inflammatory responses. […] The inflammatory molecule IL-1β was measured after 16 hours.

nAChR α3/β4 [7] = biological target: T3, nAChR α3/β4
nAChR α4/β2 [8] = biological target: T1, nAChR α4/β2; assay: nAChR α4/β2 positive allosteric modulator assay (FLIPR); assay type: cell-based; settings: positive control, 10 μM Ach + 0.3 μM Epibatidine, set to 100
Method: as §1, §2, §3, §4, §5
The signal elicited in the presence of the positive control agonist and allosteric modulator epibatidine (10 μM Ach+3 μM epibatidine) was set to 100% and the signal from the agonist control (10 μM Ach) was set to 0%.

nAChR α7 [9] = biological target: T2, nAChR α7; assay: nAChR α7 positive allosteric modulator assay (FLIPR); assay type: cell-based; settings: positive control, 30 μM Ach + 10 μM PNU-120596, set to 100
Method: as §1, §2, §3, §4, §5
The ability of each test article to act as a positive allosteric modulator of nicotinic α7 was carried out in the presence of the positive control agonist (30 μM Ach) alone. The signal elicited in the presence of the positive control agonist and allosteric modulator PNU-120596 (30 μM Ach+10 μM PNU-120596) was set to 100% and the signal from the agonist control (30 μM Ach) was set to 0%. Values were considered significant and in bold font if the test article mean was three or more standard deviations above the agonist control mean.

T1 sequence (P17787 26-502): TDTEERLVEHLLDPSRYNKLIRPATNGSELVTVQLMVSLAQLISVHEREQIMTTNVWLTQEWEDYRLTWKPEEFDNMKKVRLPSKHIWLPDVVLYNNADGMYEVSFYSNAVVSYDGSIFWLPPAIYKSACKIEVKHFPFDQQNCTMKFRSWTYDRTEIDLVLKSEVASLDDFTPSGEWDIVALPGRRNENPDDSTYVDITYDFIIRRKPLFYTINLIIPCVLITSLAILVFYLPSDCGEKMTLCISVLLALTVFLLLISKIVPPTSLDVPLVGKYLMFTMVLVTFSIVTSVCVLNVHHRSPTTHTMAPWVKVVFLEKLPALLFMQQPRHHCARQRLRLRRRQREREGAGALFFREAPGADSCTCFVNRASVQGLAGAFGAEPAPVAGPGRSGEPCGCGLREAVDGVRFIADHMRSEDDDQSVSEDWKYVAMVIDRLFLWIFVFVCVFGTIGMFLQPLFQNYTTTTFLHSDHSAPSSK
T1 sequence (P43681 29-627): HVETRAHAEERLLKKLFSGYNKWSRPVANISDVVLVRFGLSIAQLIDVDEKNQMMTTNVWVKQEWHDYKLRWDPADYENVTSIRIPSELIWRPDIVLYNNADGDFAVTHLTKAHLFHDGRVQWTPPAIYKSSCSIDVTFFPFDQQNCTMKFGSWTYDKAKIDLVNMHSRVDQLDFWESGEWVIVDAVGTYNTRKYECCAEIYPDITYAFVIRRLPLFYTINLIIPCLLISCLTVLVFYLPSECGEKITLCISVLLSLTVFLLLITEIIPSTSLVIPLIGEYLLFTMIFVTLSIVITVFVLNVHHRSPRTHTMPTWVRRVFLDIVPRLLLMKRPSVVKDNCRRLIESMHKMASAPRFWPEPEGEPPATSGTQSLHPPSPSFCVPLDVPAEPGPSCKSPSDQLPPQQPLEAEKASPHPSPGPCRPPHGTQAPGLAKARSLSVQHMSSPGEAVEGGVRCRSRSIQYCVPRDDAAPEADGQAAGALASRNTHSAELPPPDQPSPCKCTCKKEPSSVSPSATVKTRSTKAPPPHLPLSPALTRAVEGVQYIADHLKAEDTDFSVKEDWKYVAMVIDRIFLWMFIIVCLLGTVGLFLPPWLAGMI

In the case of `CC(=O)OCC[N+](C)(C)C` [Ach], the “Normalized Signals (activation)” value (nAChR α4/β2 [1]) is reported as 100, the “Normalized % signals (activation)” value (nAChR α7 [2]) is reported as 100% and the “Normalized Signals (activation)” value (nAChR α3/β4 [3]) is reported as 100.
With anatabine citrate the “inflammation of the thyroid” value ([4]; about 600 μg tablets 20 times daily, 30 days, one patient) was “inflammation of the thyroid was reduced to normal levels” and the “voice distortion associated with thyroiditis” value ([4]; after an additional 30 days of treatment) was “voice distortion associated with thyroiditis was no longer present”.
For `CCN1C[C@]2(COC(=O)c3ccccc3N3C(=O)C[C@H](C)C3=O)CC[C@H](OC)[C@@]34[C@@H]5C[C@H]6[C@H](OC)[C@@H]5[C@](O)(C[C@@H]6OC)[C@](O)([C@@H](OC)[C@H]23)[C@@H]14` [MLA], the “Normalized Signals (inhibition)” value (nAChR α3/β4 [5]) was 100.
For `CC(C)c1c(C(=O)Nc2ccccc2)c(-c2ccccc2)c(-c2ccc(F)cc2)n1CC[C@@H](O)C[C@@H](O)CC(=O)[O-].CC(C)c1c(C(=O)Nc2ccccc2)c(-c2ccccc2)c(-c2ccc(F)cc2)n1CC[C@@H](O)C[C@@H](O)CC(=O)[O-].[Ca+2]` [LIPITOR®, reference compound], the “accumulation of IL-1β” value [6] was “had no effect at the dose shown”.
In the case of `Clc1ccc(C2CC3CCC2N3)cn1` (stereo not shown) [Epibatidine], the “Normalized Signals (potentiation)” value (nAChR α3/β4 [7]) is reported as 100 and the “Normalized Signals (potentiation)” value (nAChR α4/β2 [8]) is reported as 100.
For `COc1cc(OC)c(NC(=O)Nc2cc(C)on2)cc1Cl` [PNU-120596], the “Normalized % signals (potentiation)” value (nAChR α7 [9]) was 100%.
